Source: patent US20240335462A1, “SULFUR/PHOSPHORUS-CONTAINING ARYL COMPOUND AND APPLICATION THEREOF” (MEDSHINE DISCOVERY INC., priority 2021, published 2024)
Structures can show the parent of a compound that is named as a salt. Where two headings read alike, the source gives them in different places. Marks after values point to notes of the source that are not given here.

How the values were obtained:
[1] = target: Ba/F3-FL-TYK2-E957D cells (Homo sapiens, UniProt P29597, E957D, cells depend on it); assay: Proliferation of Ba/F3-FL-TYK2-E957D cells (CellTiter-Glo); format: cell-based, mouse; settings: 72 hours, read-out: Half maximal inhibitory concentration IC50 for cells Ba/F3-FL-TYK2-E957D
Text: Adenosine triphosphate (ATP) serves as a universal energy carrier in various life processes, representing the smallest unit of energy storage and transfer. The CellTiter-Glo™ Luminescent Cell Viability Assay Kit utilizes luciferase as a detection agent. During the luminescent process, luciferase requires the participation of ATP. By adding CellTiter-Glo™ reagent to the cell culture medium and measuring the luminescence, the light signal was directly proportional to the amount of ATP in the system, and ATP was positively correlated with the number of viable cells. Therefore, cell proliferation can be detected by measuring ATP content using the CellTiter-Glo kit. In this test, the cell lines used were Ba/F3-FL-TYK2-E957D and Ba/F3-TEL-TYK2. Ba/F3-FL-TYK2-E957D cells can stably express the exogenously introduced human TYK2-E957D gene, and the TYK2-E957D gene sequence contains both JH1 and JH2 domains. On the other hand, Ba/F3-TEL-TYK2 cells can stably express the exogenously introduced human TEL-TYK2 gene, and the TEL-TYK2 gene sequence contains only the JH1 domain of TYK2.
The cell lines were cultured in an incubator at 37° C. with 5% CO2. Regular passaging was performed, and cells in the logarithmic growth phase were selected for plating.
• a) The test compounds were prepared into a 10 mM solution with DMSO, and then diluted to 0.3 or 1 mM with DMSO. • b) Preparation of 1000× compound storage plate (tube): The compounds were 3-fold serially diluted from the highest concentration to the lowest concentration, creating 9 different concentrations. • c) Preparation of 20× compound working solution: 49 μL of cell culture medium was added to a flat-bottomed 96-well transparent drug plate. From the 1000× compound storage plate, 1 μL of the compound was pipetted into the cell culture medium in the 96-well transparent drug plate. In the solvent control, 1 μL of DMSO was added. After the compound or DMSO was added, the mixture was homogenized using a multi-channel pipette.
• a) Cells were stained with trypan blue and viable cells were counted to ensure a cell viability of 90% or more. • b) 95 μL of cell suspension (2000 cells/well) was added to each well of the compound assay cell plate, and cell-free culture medium containing 0.1% DMSO was added to the Min control wells. • c) Administration in the compound assay cell plate: 5 μL of 20× compound working solution was added to the cell culture plate. 5 μL of DMSO-cell culture medium mixture was added to the Max control wells. The final concentration of DMSO was 0.1%. • d) The culture plate was then incubated in an incubator at 37° C. with 5% CO2 for 72 hours.
The following steps were conducted in accordance with the instructions of the Promega CellTiter-Glo Luminescent Cell Viability Assay Kit (Promega-G7573). • a) CellTiter-Glo buffer was thawed and brought to room temperature. • b) CellTiter-Glo substrate was also brought to room temperature. • c) CellTiter-Glo buffer was added to a bottle of CellTiter-Glo substrate to dissolve the substrate, thereby preparing CellTiter-Glo working solution. • d) The mixture was slowly vortexed and shaken to be fully dissolved. • e) The cell culture plate was removed and allowed to equilibrate to room temperature for 10 minutes. • f) 50 μL (equal to half the volume of cell culture medium in each well) of CellTiter-Glo working solution was added to each well. • g) The culture plate was shaken on an orbital shaker for 2 minutes to induce cell lysis. • h) The plate was then left at room temperature for 10 minutes to stabilize the luminescent signal. • i) The luminescent signal was detected using a SpectraMax Paradigm plate reader.
Data analysis was conducted using GraphPad Prism 5.0 software. Nonlinear S-curve regression was employed to fit the data and generate dose-response curves. From these curves, the IC50 values were calculated.

[2] = Pharmacokinetic testing in mice; format: in vivo, male CD-1 mice; settings: mouse; for Vd / AUC(0-t) / half-life / C0 / bioavailability / Cmax / Tmax: male, CD-1, plasma; for Vd: read-out: Apparent volume of distribution Vd; for AUC(0-t): read-out: Area under the curve AUC0-last; for half-life: read-out: Half-life T1/2 (converted); for C0: read-out: Starting concentration C0; for bioavailability: read-out: Bioavailability F %; for Cmax: read-out: Peak concentration Cmax; for Tmax: read-out: Time to peak concentration Tmax
Description: The objective was to study the pharmacokinetic behavior of the compound of the present disclosure in mice and evaluate the pharmacokinetic characteristics, using male CD-1 mice aged 7 to 9 weeks as test animals. The drug concentrations in plasma at different time points after a single intravenous injection (IV) and oral administration (PO) of the compound were determined using LC/MS/MS.
The pharmacokinetic characteristics of the compound in rodents following intravenous injection and oral administration were tested using a standard protocol. Test animals were fasted for 10 to 14 hours before administration and allowed to feed 4 hours post-administration. The compound was prepared into a clear solution with the appropriate solvent for both IV (intravenous injection) and PO (oral gavage) administration. The solvent was 10% DMSO+10% solutol+80% (10% HP-β-CD aqueous solution). Whole blood samples were collected within 24 hours, centrifuged at 6000 g for 3 minutes, and the supernatant was separated to obtain plasma samples. Protein precipitation was performed by adding four times the volume of acetonitrile solution containing internal standard to the plasma samples. After centrifugation, the supernatant was added with an equal volume of water and then centrifuged before being subjected to LC-MS/MS analysis for quantifying plasma drug concentration. Pharmacokinetic parameters such as peak concentration, time to peak concentration, clearance, half-life, area under the drug-time curve, and bioavailability were calculated.

[3] = system: IL-23-induced psoriasis-like skin lesions; assay: Mouse psoriasis-like model induced by IL-23; format: in vivo, C57BL/6 mice; set-up: Total score for epidermal hyperplasia of ear pinnae / AUC of total score for epidermal hyperplasia of ear pinnae / Pathological score: Degree of keratinization / Pathological score: Epidermal thickness / Pathological score: Dermal thickness / Pathological score: Inflammatory cell infiltration / Comprehensive pathological score: scale not given here
Text: The purpose of this experiment was to evaluate the prophylactic and therapeutic effect of the test substance on IL-23-induced psoriasis-like skin lesions in mice by intradermal injection of IL-23 into the ear pinnae in a psoriasis-like skin lesion model.
Female C57BL/6 mice of qualified body weight were randomly divided into groups, with 6 mice per group. The grouping and administration information was as follows. The groups were: blank control group, model group, positive control Ustekinumab (5 mg/kg) group, WX-011A hydrochloride (30, 50 mg/kg) group, and WX-020 sulfate (30, 50 mg/kg) group. Except for the blank control group, the animals in the other groups received an intradermal injection of IL-23 (3 μg/10 μL/mouse/day, QD) in the right ear for 8 consecutive days (Day 0 to Day 7). The blank control group received an intradermal injection of an equal volume of saline solution (10 μL/mouse/day, QD) in the right ear for 8 consecutive days (Day 0 to Day 7). Concurrent with model induction, the solvent or test drug was orally administered twice a day (Bid) at 6-hour intervals for 8 consecutive days (Day 0 to Day 7). The positive control was subcutaneously injected on Day 0 and Day 3 (a total of 2 doses). During the administration period, the body weight of the animals was monitored every two days. On Day 0, Day 2, Day 4, Day 6 (all before IL-23 injection), and Day 8, the thickness of the right ear of the mice was measured, and the appearance of the ear pinnae was observed and scored.
The compounds were all prepared into a clear solution with 10% DMSO+[…] as a solvent for PO (oral gavage) administration. Administration volume parameters: 10 mL/kg based on the body weight of the mice.
After grouping, IL-23 (3 μg/10 μL/mouse/day, QD) was injected intradermally into the right ears of the mice for 8 consecutive days (Day 0 to Day 7). Measurements of the thickness of the right ear and observations and scoring of the appearance of the ear pinnae were performed on Day 0, Day 2, Day 4, Day 6 (all before IL-23 injection), and Day 8. At the end of the experiment (Day 8), the left ear tissues of the mice from groups G4 to G10 (3 animals per group at each time point) were collected. The right ear, which had been modeled, was excised, an 8 mm ear punch was taken along the edge of the pinna, and its weight was measured. The excised right ear tissues were fixed in formalin for histopathological examination (H&E staining).
Concurrent with model induction, corresponding drug treatment was given for administration. Except for the positive control drug (Ustekinumab), which was subcutaneously injected on Day 0 and Day 3 (once a day), control and test drugs for each dose group were orally administered by gavage twice a day at 6-hour intervals for 8 consecutive days (Day 0 to Day 7).
The pathological scoring of mouse ear tissue sections was conducted according to the criteria in Table 33.
The experimental data are represented as Mean±SD; statistical analysis was performed using IBM SPSS Statistics 21, with p<0.05 considered to indicate a statistically significant difference between the two groups. The effect of the test substance on the thickness of mouse ears in the IL-23 induced mouse pinna epidermal hyperplasia model is shown in Table 34. The effect of the test substance on the total score and AUC for […] induced mouse pinna epidermal hyperplasia is shown in Table 35.

[4] = 5 mg/kg SC on Day 0 and Day 3, Day 0
[5] = 5 mg/kg SC on Day 0 and Day 3, Day 2
[6] = 5 mg/kg SC on Day 0 and Day 3, Day 4
[7] = 5 mg/kg SC on Day 0 and Day 3, Day 6
[8] = 5 mg/kg SC on Day 0 and Day 3, Day 8
[9] = 5 mg/kg SC, right ear H&E sections

Sequence of Ba/F3-FL-TYK2-E957D cells (P29597 whole entry E957D): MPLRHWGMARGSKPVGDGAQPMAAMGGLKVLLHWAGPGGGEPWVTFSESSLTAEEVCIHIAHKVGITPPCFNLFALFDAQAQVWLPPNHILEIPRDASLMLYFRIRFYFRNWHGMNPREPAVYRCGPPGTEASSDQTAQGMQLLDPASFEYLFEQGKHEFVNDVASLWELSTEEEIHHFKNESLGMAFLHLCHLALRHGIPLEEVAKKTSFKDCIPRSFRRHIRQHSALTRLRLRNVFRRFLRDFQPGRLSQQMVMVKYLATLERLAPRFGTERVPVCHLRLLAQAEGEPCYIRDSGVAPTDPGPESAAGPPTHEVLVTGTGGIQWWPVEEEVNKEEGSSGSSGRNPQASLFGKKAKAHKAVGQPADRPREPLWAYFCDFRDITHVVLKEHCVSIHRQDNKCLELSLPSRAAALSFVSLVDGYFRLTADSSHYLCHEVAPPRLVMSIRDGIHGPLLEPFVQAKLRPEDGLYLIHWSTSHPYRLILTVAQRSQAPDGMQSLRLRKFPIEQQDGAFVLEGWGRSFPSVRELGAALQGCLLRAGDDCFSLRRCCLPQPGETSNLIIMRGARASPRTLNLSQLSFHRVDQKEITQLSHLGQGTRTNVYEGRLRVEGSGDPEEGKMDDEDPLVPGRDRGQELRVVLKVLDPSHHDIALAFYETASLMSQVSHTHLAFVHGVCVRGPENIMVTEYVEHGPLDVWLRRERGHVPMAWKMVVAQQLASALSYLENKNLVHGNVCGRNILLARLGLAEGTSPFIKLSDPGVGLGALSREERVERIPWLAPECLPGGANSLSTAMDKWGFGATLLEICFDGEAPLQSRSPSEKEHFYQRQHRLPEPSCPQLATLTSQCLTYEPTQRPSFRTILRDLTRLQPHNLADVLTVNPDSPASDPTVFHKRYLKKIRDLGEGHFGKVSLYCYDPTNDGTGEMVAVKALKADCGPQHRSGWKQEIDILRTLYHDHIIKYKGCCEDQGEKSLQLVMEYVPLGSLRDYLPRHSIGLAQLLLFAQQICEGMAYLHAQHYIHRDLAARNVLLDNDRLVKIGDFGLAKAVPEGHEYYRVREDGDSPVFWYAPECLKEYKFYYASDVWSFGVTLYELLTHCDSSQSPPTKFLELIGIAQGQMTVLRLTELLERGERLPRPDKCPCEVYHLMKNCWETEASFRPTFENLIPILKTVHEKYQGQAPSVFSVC

## CNC(=O)c1nnc(NC(=O)C2CC2)cc1Nc1cccc(-c2ccc(S(=N)(=O)C(C)C)nn2)c1OC (single isomer, unassigned) [WX-036B]
[1]
  GI50: 17.3 nM

## [2H]C([2H])([2H])NC(=O)c1cnc(NC(=O)C2CC2)cc1Nc1cccc(-c2ccc(S(C)(=O)=O)cc2)c1OC [Hydrochloride of WX-007]
[1]
  GI50: 9.5 nM

## CCP(=O)(CC)c1ccc(-c2cccc(Nc3cc(NC(=O)C4CC4)ncc3C(=O)NC)c2OC)cc1 [WX-025]
[1]
  GI50: 12.7 nM

## CCP(=O)(CC)c1ccc(-c2cccc(Nc3cc(NC(=O)C4CC4)nnc3C(=O)NC)c2OC)nc1 [WX-022]
[1]
  GI50: 13.7 nM

## [2H]C([2H])([2H])NC(=O)c1nnc(NC(=O)C2CC2)cc1Nc1cc(F)cc(-c2ccc(P(C)(C)=O)cc2)c1OC [Hydrochloride of WX-027]
[1]
  GI50: 18.3 nM

## CNC(=O)c1nnc(NC(=O)C2CC2)cc1Nc1cccc(-c2ncc(S(=N)(=O)C(C)C)cn2)c1OC (stereo not drawn) [WX-011]
[2]; IV 1 mg/kg
  Vd: 0.7 L/kg
  AUC(0-t): 4.79 µM·h
  half-life: 3.2 h
  C0: 5.42 µM
  Apparent clearance Cl: 6.6 mL/min/kg
[2]; PO 10 mg/kg
  AUC(0-t): 25 µM·h
  bioavailability: 52%
  Cmax: 10.2 µM
  Tmax: 0.5 h

## CNC(=O)c1nnc(NC(=O)C2CC2)cc1Nc1cccc(-c2ccc(P(=O)(C3CC3)C3CC3)cc2)c1OC [WX-024]
[1]
  GI50: 10 nM

## CNC(=O)c1nnc(NC(=O)C2CC2)cc1Nc1cccc(-c2ncc(S(=N)(=O)C3CC3)cn2)c1OC (stereo not drawn) [WX-028]
[1]
  GI50: 4 nM

## COc1c(Nc2cc(NC(=O)C3CC3)nnc2C(N)=O)cccc1-c1ccc(P(=O)(C2CC2)C2CC2)cn1 [Trifluoroacetate of WX-035]
[1]
  GI50: 6.7 nM

## [2H]C([2H])([2H])NC(=O)c1cnc(NC(=O)C2CC2)cc1Nc1cccc(-c2ccc(S(C)(=O)=NC)cc2)c1OC (stereo not drawn) [Hydrochloride of WX-010]
[1]
  GI50: 12.6 nM

## CNC(=O)c1nnc(NC(=O)C2CC2)cc1Nc1cccc(-c2ccc(S(=N)(=O)C(C)C)cn2)c1OC (stereo not drawn) [WX-012]
[2]; IV 1 mg/kg
  Vd: 2.9 L/kg
  AUC(0-t): 2.46 µM·h
  half-life: 4.4 h
  C0: 2.75 µM
  Apparent clearance Cl: 12.8 mL/min/kg
[2]; PO 10 mg/kg
  AUC(0-t): 16.7 µM·h
  bioavailability: 68%
  Cmax: 12.4 µM
  Tmax: 0.3 h

## Ustekinumab: positive control Ustekinumab (anti-IL-12/IL-23), Selleck, subcutaneously injected [reference compound]
[3]; [4]
  Ear thickness (mm): 0.196 mm
  Total score for epidermal hyperplasia of ear pinnae: 0.00
[3]; 5 mg/kg SC on Day 0 and Day 3, Day 0 to Day 8
  AUC of total score for epidermal hyperplasia of ear pinnae: 2.83**
[3]; [5]
  Ear thickness (mm): 0.277* mm
  Total score for epidermal hyperplasia of ear pinnae: 0.00
[3]; [6]
  Ear thickness (mm): 0.288** mm
  Total score for epidermal hyperplasia of ear pinnae: 0.33*
[3]; [7]
  Ear thickness (mm): 0.316** mm
  Total score for epidermal hyperplasia of ear pinnae: 0.67**
[3]; [8]
  Ear thickness (mm): 0.329* mm
  Total score for epidermal hyperplasia of ear pinnae: 0.83**
[3]; [9]
  Comprehensive pathological score: 3.50**
  Pathological score: Degree of keratinization: 0.50**
  Pathological score: Dermal thickness: 0.67
  Pathological score: Epidermal thickness: 1.17**
  Pathological score: Inflammatory cell infiltration: 1.17**

## CNC(=O)c1nnc(NC(=O)C2CC2)cc1Nc1cccc(-c2ccc(S(=N)(=O)C(C)C)nc2)c1OC (single isomer, unassigned) [WX-037A]
[1]
  GI50: 15 nM

## [2H]C([2H])([2H])NC(=O)c1cnc(NC(=O)C2CC2)cc1Nc1cccc(-c2ncc(S(=O)(=O)N3CCCC3)cn2)c1OC [Hydrochloride of WX-006]
[1]
  GI50: 10.6 nM
